Results from patent publication US6737383B1, “Herbicidal oxadiazolidines” (priority 1999, dated 2004).

Assays:
soybean = assay: Test B pre/postemergence soybean; assay type: in vivo, Glycine max; conditions: for Soybean plant response rating: Postemergence; for Plant response rating, Soybean: Preemergence
In short: (§1)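 Response is a visual 0-to-10 score relative to untreated plants, where 0 means no effect and 10 means complete control, taken twelve to sixteen days after application. Treatments went onto soil at planting and onto foliage of 1- to 4-leaf plants, using a surfactant-containing non-phytotoxic solvent.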

pigweed = assay: Test B pre/postemergence pigweed; assay type: in vivo, Amaranthus retroflexus; conditions: for Redroot pigweed plant response rating: Postemergence; for Plant response rating, Redroot pigweed: Preemergence
In short: as §1

cocklebur = assay: Test B pre/postemergence cocklebur; assay type: in vivo, Xanthium strumarium; conditions: for Cocklebur plant response rating: Postemergence; for Plant response rating, Cocklebur: Preemergence
In short: as §1

velvetleaf = assay: Test B pre/postemergence velvetleaf; assay type: in vivo, Abutilon theophrasti; conditions: for Velvetleaf plant response rating: Postemergence; for Plant response rating, Velvetleaf: Preemergence
In short: as §1

sugar beet = assay: Test B pre/postemergence sugar beet; assay type: in vivo, Beta vulgaris; conditions: for Sugarbeets plant response rating: Postemergence; for Plant response rating, Sugarbeets: Preemergence
In short: as §1

surinam grass = assay: Test B pre/postemergence surinam grass; assay type: in vivo, Brachiaria decumbens; conditions: for B. signalgrass plant response rating: Postemergence; for Plant response rating, B. signalgrass: Preemergence
In short: as §1

morningglory = assay: Test B pre/postemergence morningglory; assay type: in vivo, Ipomoea hederacea; conditions: for Morningglory plant response rating: Postemergence; for Plant response rating, Morningglory: Preemergence
In short: as §1

wheat = assay: Test B pre/postemergence wheat; assay type: in vivo, Triticum aestivum; conditions: for Wheat plant response rating: Postemergence; for Plant response rating, Wheat: Preemergence
In short: as §1

corn = assay: Test B pre/postemergence corn; assay type: in vivo, Zea mays; conditions: for Corn plant response rating: Postemergence; for Plant response rating, Corn: Preemergence
In short: as §1

giant foxtail = assay: Test B pre/postemergence giant foxtail; assay type: in vivo, Setaria faberii; conditions: for Giant foxtail plant response rating: Postemergence; for Plant response rating, Giant foxtail: Preemergence
In short: as §1

bedstraw = assay: Test B pre/postemergence bedstraw; assay type: in vivo, Galium aparine; conditions: Postemergence
In short: as §1

duck salad = assay: Test B flood test duck salad; assay type: in vivo, Heteranthera limosa
In short: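 Read-out is a visual response score from 0 (no effect) to 10 (complete control), assigned by comparison with untreated controls. Treatment was applied at the 2-leaf stage, and plants stayed in the greenhouse for twelve to sixteen days before scoring.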

purple nutsedge = assay: Test B pre/postemergence purple nutsedge; assay type: in vivo, Cyperus rotundus; conditions: for Nutsedge plant response rating: Postemergence; for Plant response rating, Nutsedge: Preemergence
In short: as §1

crabgrass = assay: Test B pre/postemergence crabgrass; assay type: in vivo, Digitaria sanguinalis; conditions: for Crabgrass plant response rating: Postemergence; for Plant response rating, Crabgrass: Preemergence
In short: as §1

rape = assay: Test B pre/postemergence rape; assay type: in vivo, Brassica napus; conditions: for Rape plant response rating: Postemergence; for Plant response rating, Rape: Preemergence
In short: as §1

[1] = Rate 125 g/ha, scale of 0 to 10 where 0 is no effect and 10 is complete control
[2] = Rate 500 g/ha, scale of 0 to 10 where 0 is no effect and 10 is complete control
[3] = Rate 250 g/ha, scale 0 to 10, 0 is no effect, 10 is complete control
[4] = Rate 500 g/ha, scale 0 to 10, 0 is no effect, 10 is complete control
[5] = Rate 1000 g/ha, scale 0 to 10 (0 no effect, 10 complete control)
[6] = Rate 250 g/ha, scale 0 to 10 (0 no effect, 10 complete control)

COC(=O)C(CCO)n1c(=O)on(C(=O)N(c2ccc(F)cc2)C(C)C)c1=O (stereo not shown) [Compound 680]
Soybean plant response rating (soybean; [1]): 0 | Plant response rating, Soybean (soybean; [1]): 0 | Plant response rating, Soybean (soybean; [2]): 0 | Soybean plant response rating (soybean; [3]): 0 | Soybean plant response rating (soybean; [4]): 3 | Plant response rating, Soybean (soybean; [5]): 0 | Redroot pigweed plant response rating (pigweed; [1]): 0 | Redroot pigweed plant response rating (pigweed; [5]): 5 | Plant response rating, Redroot pigweed (pigweed; [1]): 0 | Plant response rating, Redroot pigweed (pigweed; [2]): 3 | Redroot pigweed plant response rating (pigweed; [3]): 0 | Redroot pigweed plant response rating (pigweed; [4]): 0 | Plant response rating, Redroot pigweed (pigweed; [5]): 7 | Cocklebur plant response rating (cocklebur; [1]): 0 | Cocklebur plant response rating (cocklebur; [5]): 0 | Plant response rating, Cocklebur (cocklebur; [1]): 0 | Plant response rating, Cocklebur (cocklebur; [6]): 0 | Plant response rating, Cocklebur (cocklebur; [2]): 0 | Cocklebur plant response rating (cocklebur; [3]): 0 | Cocklebur plant response rating (cocklebur; [4]): 0 | Plant response rating, Cocklebur (cocklebur; [5]): 0 | Velvetleaf plant response rating (velvetleaf; [1]): 0 | Plant response rating, Velvetleaf (velvetleaf; [1]): 0 | Plant response rating, Velvetleaf (velvetleaf; [2]): 0 | Velvetleaf plant response rating (velvetleaf; [3]): 0 | Velvetleaf plant response rating (velvetleaf; [4]): 0 | Plant response rating, Velvetleaf (velvetleaf; [5]): 4 | Sugarbeets plant response rating (sugar beet; [1]): 0 | Plant response rating, Sugarbeets (sugar beet; [1]): 0 | Plant response rating, Sugarbeets (sugar beet; [2]): 0 | Sugarbeets plant response rating (sugar beet; [3]): 0 | Sugarbeets plant response rating (sugar beet; [4]): 0 | Plant response rating, Sugarbeets (sugar beet; [5]): 0 | B. signalgrass plant response rating (surinam grass; [1]): 0 | B. signalgrass plant response rating (surinam grass; [5]): 3 | Plant response rating, B. signalgrass (surinam grass; [1]): 0 | Plant response rating, B. signalgrass (surinam grass; [6]): 0 | Plant response rating, B. signalgrass (surinam grass; [2]): 0 | B. signalgrass plant response rating (surinam grass; [3]): 0 | B. signalgrass plant response rating (surinam grass; [4]): 0 | Plant response rating, B. signalgrass (surinam grass; [5]): 0 | Morningglory plant response rating (morningglory; [1]): 1 | Morningglory plant response rating (morningglory; [5]): 7 | Plant response rating, Morningglory (morningglory; [1]): 0 | Plant response rating, Morningglory (morningglory; [2]): 0 | Morningglory plant response rating (morningglory; [3]): 1 | Morningglory plant response rating (morningglory; [4]): 1 | Plant response rating, Morningglory (morningglory; [5]): 0 | Wheat plant response rating (wheat; [1]): 0 | Plant response rating, Wheat (wheat; [1]): 0 | Plant response rating, Wheat (wheat; [2]): 0 | Wheat plant response rating (wheat; [3]): 0 | Wheat plant response rating (wheat; [4]): 0 | Plant response rating, Wheat (wheat; [5]): 0 | Corn plant response rating (corn; [1]): 0 | Corn plant response rating (corn; [5]): 1 | Plant response rating, Corn (corn; [1]): 0 | Plant response rating, Corn (corn; [6]): 0 | Plant response rating, Corn (corn; [2]): 0 | Corn plant response rating (corn; [3]): 0 | Corn plant response rating (corn; [4]): 0 | Plant response rating, Corn (corn; [5]): 0 | Giant foxtail plant response rating (giant foxtail; [1]): 0 | Giant foxtail plant response rating (giant foxtail; [5]): 8 | Plant response rating, Giant foxtail (giant foxtail; [1]): 0 | Plant response rating, Giant foxtail (giant foxtail; [2]): 4 | Giant foxtail plant response rating (giant foxtail; [3]): 0 | Giant foxtail plant response rating (giant foxtail; [4]): 5 | Plant response rating, Giant foxtail (giant foxtail; [5]): 7 | Bedstraw plant response rating (bedstraw; [1]): 0 | Bedstraw plant response rating (bedstraw; [3]): 0 | Bedstraw plant response rating (bedstraw; [4]): 0 | Ducksalad plant response rating (duck salad; Pre-emergence, Rate 1000 g/ha, scale 0 to 10 (0 no effect, 10 complete control)): 0 | Ducksalad plant response rating (0 to 10 scale, 0 is no effect, 10 is complete control) (duck salad; Rate 125 g/ha, under heading Pre-emergence, flood test species, visual evaluation after twelve to sixteen days): 0 | Ducksalad plant response rating (duck salad; Rate 250 g/ha, Pre-emergence (flood test species), scale 0 to 10, 0 is no effect, 10 is complete control): 0 | Ducksalad plant response rating (duck salad; Rate 500 g/ha, Pre-emergence section of Table B, 0 to 10 scale (0 no effect, 10 complete control)): 0 | Nutsedge plant response rating (purple nutsedge; [1]): 0 | Plant response rating, Nutsedge (purple nutsedge; [1]): 0 | Plant response rating, Nutsedge (purple nutsedge; [2]): 0 | Nutsedge plant response rating (purple nutsedge; [3]): 0 | Nutsedge plant response rating (purple nutsedge; [4]): 0 | Plant response rating, Nutsedge (purple nutsedge; [5]): 0 | Crabgrass plant response rating (crabgrass; [1]): 0 | Crabgrass plant response rating (crabgrass; [5]): 9 | Plant response rating, Crabgrass (crabgrass; [1]): 0 | Plant response rating, Crabgrass (crabgrass; [6]): 3 | Plant response rating, Crabgrass (crabgrass; [2]): 3 | Crabgrass plant response rating (crabgrass; [3]): 1 | Crabgrass plant response rating (crabgrass; [4]): 3 | Plant response rating, Crabgrass (crabgrass; [5]): 3 | Rape plant response rating (rape; [1]): 0 | Rape plant response rating (rape; [5]): 0 | Plant response rating, Rape (rape; [1]): 0 | Plant response rating, Rape (rape; [2]): 0 | Rape plant response rating (rape; [3]): 0 | Rape plant response rating (rape; [4]): 0 | Plant response rating, Rape (rape; [5]): 0
